Data reported in ChEMBL document CHEMBL4152331, “Thiodipeptides targeting the intestinal oligopeptide transporter as a general approach to improving oral drug delivery” (Eur J Med Chem, 2018).

Legend:
Rattus norvegicus [1] = test: Bioavailability in Sprague-Dawley rat at 6 mg/kg, po by LC-MS/MS analysis; conditions: in vivo
Rattus norvegicus [2] = test: Tmax in Sprague-Dawley rat assessed as ibuprofen release level at 10 mg/kg, po by LC-MS/MS analysis; conditions: in vivo
Caco-2 = test: Ratio of apparent permeability of FSA to compound in human Caco2 cells from apical to basolateral side at 2 mM after 1 hr by HPLC analysis; conditions: caco-2, 1 h, 2000 µM
[3] = molecular target: T1, Solute carrier family 15 member 1 (Homo sapiens, UniProt P46059); test: Ratio of substrate activity of FSA to compound at PepT1 in human Caco2 cells assessed as apparent permeability form apical to basolateral side at 2 mM in presence of Gly-Gln after 1 hr by HPLC analysis; conditions: caco-2, 1 h, 2000 µM
T1 sequence (P46059 whole entry): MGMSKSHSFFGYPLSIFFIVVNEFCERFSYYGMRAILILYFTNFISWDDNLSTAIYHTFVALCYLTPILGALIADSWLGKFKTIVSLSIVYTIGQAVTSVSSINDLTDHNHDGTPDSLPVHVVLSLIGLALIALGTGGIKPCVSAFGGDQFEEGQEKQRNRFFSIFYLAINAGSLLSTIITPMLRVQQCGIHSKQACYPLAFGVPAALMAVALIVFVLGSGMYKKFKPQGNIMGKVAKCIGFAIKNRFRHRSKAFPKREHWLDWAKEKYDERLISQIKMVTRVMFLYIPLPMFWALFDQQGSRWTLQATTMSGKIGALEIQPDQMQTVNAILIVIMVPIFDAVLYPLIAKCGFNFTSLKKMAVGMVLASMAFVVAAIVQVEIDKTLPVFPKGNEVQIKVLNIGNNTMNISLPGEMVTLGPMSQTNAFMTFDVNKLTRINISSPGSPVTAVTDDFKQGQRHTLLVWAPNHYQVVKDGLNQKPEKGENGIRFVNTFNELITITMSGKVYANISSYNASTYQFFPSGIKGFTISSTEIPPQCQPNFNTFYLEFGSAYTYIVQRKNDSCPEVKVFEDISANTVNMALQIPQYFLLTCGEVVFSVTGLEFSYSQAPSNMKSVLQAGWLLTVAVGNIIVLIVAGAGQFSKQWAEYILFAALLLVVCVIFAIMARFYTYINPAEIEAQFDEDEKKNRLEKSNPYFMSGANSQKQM

PepT1 = molecular target: T2, PepT1 (Homo sapiens, UniProt P46059); test: Substrate activity at PepT1 in human Caco2 cells assessed as apparent permeability form apical to basolateral side at 2 mM in presence of Gly-Gln after 1 hr by HPLC analysis; conditions: Caco-2, with Gly-Gln
T2 sequence (P46059 whole entry): T1 sequence (P46059 whole entry)

Rattus norvegicus [4] = test: Cmax in Sprague-Dawley rat assessed as ibuprofen release level at 10 mg/kg, po by LC-MS/MS analysis; conditions: in vivo
[5] = Half life in rat liver homogenate at 0.5 mM after 24 hrs by HPLC analysis; format: ADME, tissue-based
Rattus norvegicus [6] = test: AUC in Sprague-Dawley rat assessed as ibuprofen release level at 10 mg/kg, po by LC-MS/MS analysis; conditions: in vivo
Rattus norvegicus [7] = test: Relative bioavailability in Sprague-Dawley rat assessed as ibuprofen release level at 10 mg/kg, po by LC-MS/MS analysis; conditions: in vivo
[8] = Apparent permeability of the compound in human Caco2 cells from apical to basolateral side at 2 mM after 1 hr by HPLC analysis; conditions: Caco-2
[9] = molecular target: T3, Solute carrier family 15 member 1 (Oryctolagus cuniculus, UniProt P36836); test: Binding affinity to rabbit PepT1 expressed in Xenopus laevis oocytes assessed as inhibition of [3H]-D-Phe-L-Gln uptake by Michaelis-Menten kinetics analysis; format: ADME, cell-based
T3 sequence (P36836 whole entry): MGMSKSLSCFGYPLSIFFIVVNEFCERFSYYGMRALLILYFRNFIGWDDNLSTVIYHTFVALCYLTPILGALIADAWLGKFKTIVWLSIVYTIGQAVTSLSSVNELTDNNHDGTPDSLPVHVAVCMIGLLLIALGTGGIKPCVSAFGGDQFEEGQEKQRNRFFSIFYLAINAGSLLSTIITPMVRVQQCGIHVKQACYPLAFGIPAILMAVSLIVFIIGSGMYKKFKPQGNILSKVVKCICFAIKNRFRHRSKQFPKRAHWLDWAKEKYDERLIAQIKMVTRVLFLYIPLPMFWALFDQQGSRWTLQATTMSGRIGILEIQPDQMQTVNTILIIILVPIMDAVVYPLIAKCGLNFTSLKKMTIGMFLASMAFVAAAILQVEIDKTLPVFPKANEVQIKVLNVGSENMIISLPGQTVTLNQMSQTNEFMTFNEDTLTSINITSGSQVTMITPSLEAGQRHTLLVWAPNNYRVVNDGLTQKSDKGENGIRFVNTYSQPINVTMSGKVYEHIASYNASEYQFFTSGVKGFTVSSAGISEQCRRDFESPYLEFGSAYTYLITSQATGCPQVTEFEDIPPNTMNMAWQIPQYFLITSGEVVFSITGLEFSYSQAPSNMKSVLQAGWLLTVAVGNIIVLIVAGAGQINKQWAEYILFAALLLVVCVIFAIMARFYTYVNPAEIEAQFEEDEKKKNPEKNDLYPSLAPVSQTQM

[10] = Stability of the compound in pH 5.5 buffer; format: physicochemical

Compound: CC(C)Cc1ccc(C(C)C(=O)O)cc1 (configuration not stated) [IBUPROFEN]
- F (Rattus norvegicus [1]): 100%

Compound: CC(C)Cc1ccc([C@@H](C)C(=O)OC[C@H](NC(=S)[C@H](C)N)C(=O)O)cc1
- Tmax (Rattus norvegicus [2]): 3.2 h
- Ratio (Caco-2): 1.29
- Ratio [3]: 1.07
- Papp A→B at 1 h, 2000 µM (PepT1): 2.1 ×10⁻⁶ cm/s
- Cmax (Rattus norvegicus [4]): 200 ng/mL
- half-life at 500 µM [5]: 17.9 h
- AUC (Rattus norvegicus [6]): 700 ng·h/mL
- F (Rattus norvegicus [7]): 2.8%

Compound: CC(C)c1cccc(C(C)C)c1OC(=O)C[C@H](NC(=S)[C@H](C)N)C(=O)O
- Ratio (Caco-2): 0.41
- Ratio [3]: 0.89
- Papp A→B at 1 h, 2000 µM (PepT1): 0.5 ×10⁻⁶ cm/s
- Papp A→B at 1 h, 2000 µM [8]: 0.5 ×10⁻⁶ cm/s
- half-life at 500 µM [5]: 7.3 h

Compound: C[C@H](N)C(=S)N[C@@H](CC(=O)OCCOCn1cnc2c(=O)[nH]c(N)nc21)C(=O)O
- Ki [9]: Nd(Unstable)
- Stability [10]: Unstable

Compound: C[C@H](N)C(=S)N[C@@H](COC(=O)CC1(CN)CCCCC1)C(=O)O
- Ratio (Caco-2): 0.46
- Ratio [3]: 0.69
- Papp A→B at 1 h, 2000 µM (PepT1): 0.4 ×10⁻⁶ cm/s

Compound: C[C@H](NC(=O)[C@@H](N)Cc1ccccc1)C(N)=S
- Papp A→B at 1 h, 2000 µM (PepT1): 1.9 ×10⁻⁶ cm/s

Compound: CC(=O)Oc1ccccc1C(=O)OCCOCCOCCOC(=O)C[C@H](NC(=S)[C@H](C)N)C(=O)O
- Ki [9]: Nd(Unstable)
- Stability [10]: Unstable

Compound: COc1ccc2cc(CC/C(C)=N/OCCOC(=O)C[C@H](NC(=S)[C@H](C)N)C(=O)O)ccc2c1
- Ratio (Caco-2): 1.94
- Ratio [3]: 1.3
- Ki ([9]; read-out: Ki): 80 µM
- Papp A→B at 1 h, 2000 µM (PepT1): 4.4 ×10⁻⁶ cm/s
- Papp A→B at 1 h, 2000 µM [8]: 9.7 ×10⁻⁶ cm/s
